The results in this text go back to US20070078263A1, “BIARYL SUBSTITUTED HETEROCYCLE INHIBITORS OF LTA4H FOR TREATING INFLAMMATION” (deCODE Chemistry, Inc., priority 2005, published 2007).

Counter-ions that a name gives are not always drawn. Like-named read-outs stand apart in the source and are kept apart here.

The target in experiment [1] is T1, human LTA4 hydrolase (Homo sapiens, UniProt P09960).
T1 construct: A human LTA4 hydrolase full-length cDNA clone (NM 000895) was purchased; His tag (6xHis of vector pDEST17); made in house; host or cells: Escherichia coli BL21-AI
T1 sequence (P09960 1-611): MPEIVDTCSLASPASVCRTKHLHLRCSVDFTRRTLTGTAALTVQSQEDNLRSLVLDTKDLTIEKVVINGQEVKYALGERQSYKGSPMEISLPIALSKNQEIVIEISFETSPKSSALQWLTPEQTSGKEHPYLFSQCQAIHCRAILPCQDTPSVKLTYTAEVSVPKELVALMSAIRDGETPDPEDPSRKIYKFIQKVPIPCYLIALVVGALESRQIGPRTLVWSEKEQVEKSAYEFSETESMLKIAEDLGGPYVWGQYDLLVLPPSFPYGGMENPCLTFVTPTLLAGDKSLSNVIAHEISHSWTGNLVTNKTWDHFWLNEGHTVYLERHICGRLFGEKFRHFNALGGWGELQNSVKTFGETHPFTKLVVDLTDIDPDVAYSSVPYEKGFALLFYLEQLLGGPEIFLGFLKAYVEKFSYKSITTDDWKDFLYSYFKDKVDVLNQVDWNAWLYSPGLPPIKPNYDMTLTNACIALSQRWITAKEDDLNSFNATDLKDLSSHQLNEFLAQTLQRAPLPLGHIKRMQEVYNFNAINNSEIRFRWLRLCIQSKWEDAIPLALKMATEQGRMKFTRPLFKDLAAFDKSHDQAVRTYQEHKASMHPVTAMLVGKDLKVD
Description: In vitro assay testing inhibitory activity against purified recombinant human LTA4 hydrolase (LTB4 formed, LC-MS/MS).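 Note: 200 nM enzyme preincubated 10 min at room temperature with serial inhibitor dilutions in pH 8.0 Tris buffer with BSA and 10% DMSO, then 2 µM LTA4 added.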 The experiment is classed as biochemical.
Description: (1) In vitro assay testing inhibitory activity against purified recombinant human LTA4 hydroase. […] The gene was amplified by polymerase chain reaction and transferred via pDONR201 into the bacterial expression vector pDEST17 by recombination (both plasmids from Invitrogen, Carlsbad, Calif.). The resulting construct was transformed into Escherichia coli BL21-AI (Invitrogen), and expression was induced by chemical induction with arabinose. The recombinant enzyme was purified by chromatography on an FPLC system (Amersham Biosciences, Uppsala, Sweden) using immobilized metal affinity chromatography (Ni-NTA Superflow, Qiagen, Hilden, Germany) and anion exchange chromatography (MonoQ HR 10/10, Amersham Biosciences).
The compounds of the invention were incubated in a series of dilutions with 200 nM of recombinant enzyme in assay buffer (100 mM Tris-HCl, 100 mM NaCl, 5 mg/ml fatty-acid free BSA, 10% DMSO, pH 8.0) for 10 min at room temperature to allow binding between LTA4 hydrolase and the inhibitors. LTA4 was prepared by alkaline hydrolysis of LTA4 methyl ester (Biomol, Plymouth Meeting, Pa., or Cayman Chemicals, Ann Arbor, Mich.). A solution of 10 μg of the ester was dried under a nitrogen stream and redissolved in 60 μl of a solution of 80% acetone and 20% 0.25 M NaOH. After incubation for 40 min at room temperature the resulting approximately 500 μM tock of LTA4 was kept at −80° C. for no more than a few days prior to use.
Immediately before the assay, LTA4 was diluted to a concentration of 10 μM in assay buffer (without DMSO) and added to the reaction mixture to a final concentration of 2 μM to initiate the enzyme reaction. […] The samples were then kept at 4° C. overnight to complete protein precipitation and centrifuged for 15 min at 1800 g.

The subject of experiment [2] is human whole blood. Briefly: Ex vivo assay testing inhibitory activity in human whole blood after stimulation with calcium ionophore (LTB4 ELISA).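 Note: heparinized human blood preincubated 15 min at 37 °C with compound, then ionomycin-stimulated for 30 min, LTB4 in plasma supernatant quantified by ELISA.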 As to conditions: Ionomycin 20 μM, read-out: hWBIC50. The class given is cell-based. (An ELISA detects its analyte on a solid surface through an enzyme-linked reagent.)
Description: (2) Ex vivo assay testing inhibitory activity in human whole blood after stimulation with calcium ionophor.
Human blood was collected in heparin-containing Vacutainer tubes. […] Then 4 μl of a series of compound dilutions (in DMSO) were added, followed by a 15 min incubation at 37° C. with gentle shaking. After that, blood samples were stimulated by adding Ionomycin (Calbiochem) to a final concentration of 20 μM. After another incubation at 37° C. for 30 min, samples were centrifuged for 5 min at 1800 g and 4° C. Supernatants were taken and LTB4 concentrations were determined using a commercially available enzyme-linked immunosobentassay (R&D Systems, Minneapolis, Minn.) according to the manufacturer's instructions.
Where [3] appears, read: recombinant human LTA4 hydrolase 200 nM, LTA4 2 μM, read-out: AvgIC50.

`c1ccc(-c2ccc(Oc3ccc(OC[C@@H]4CCCCN4)cc3)cc2)cc1` [Example 53, (S)-2-[4-(Biphenyl-4-yloxy)-phenoxymethyl]-piperidine hydrochloride]: the IC50 in experiment [1] and in experiment [2] was less than 5 µM each time.
On to `c1ccc(-c2ccc(Oc3ccc(OC[C@H]4CCCCN4)cc3)cc2)cc1` [Example 54, (R)-2-[4-(Biphenyl-4-yloxy)-phenoxymethyl]-piperidine hydrochloride], for which the IC50 in experiment [1] and in experiment [2] was less than 5 µM throughout.
With `FC(F)(F)c1ccc(Oc2ccc(OC[C@H]3CCCCN3)cc2)cc1` [Example 55, (R)-2-[4-(4-Trifluoromethyl-phenoxy)-phenoxymethyl]-piperidine hydrochloride], the IC50 in experiment [1] (setting [3]) and in experiment [2] was less than 5 µM in each case.
Turning to `Clc1ccc(Oc2ccc(OC[C@@H]3CCCCN3)cc2)cc1` [Example 56, (S)-2-[4-(4-Chloro-phenoxy)-phenoxymethyl]-piperidine hydrochloride], the IC50 in experiment [1] (setting [3]) and in experiment [2] was less than 5 µM in each case.
Regarding `Fc1ccc(Oc2ccc(OC[C@@H]3CCCCN3)cc2)cc1` [Example 57, (S)-2-[4-(4-Fluoro-phenoxy)-phenoxymethyl]-piperidine hydrochloride], the IC50 in experiment [1] (setting [3]) and in experiment [2] was less than 5 µM in each case.
For `COC(=O)CCCN1CCCC[C@H]1COc1ccc(Oc2ccc(Cl)cc2)cc1` [Example 60, 4-{(S)-2-[4-(4-Chloro-phenoxy)-phenoxymethyl]-piperidin-1-yl}-butyric acid methyl ester], the IC50 in experiment [1] (setting [3]) and in experiment [2] was less than 5 µM throughout.
On to `O=C(O)CCCN1CCCC[C@H]1COc1ccc(Oc2ccc(Cl)cc2)cc1` [Example 61, 4-{(S)-2-[4-(4-Chloro-phenoxy)-phenoxymethyl]-piperidin-1-yl}-butyric acid hydrochloride], for which the IC50 in experiment [1] and in experiment [2] was less than 5 µM each time.
In the case of `Clc1ccc(Cc2ccc(OC[C@@H]3CCCN3)cc2)cc1` [Example 64, (S)-2-[4-(4-Chloro-benzyl)-phenoxymethyl]-pyrrolidine hydrochloride], the IC50 in experiment [1] (setting [3]) and in experiment [2] was less than 5 µM throughout.
With `O=C(O)CCC[N+]1([O-])CCC[C@H]1COc1ccc(Oc2ccc(Cl)cc2)cc1` (stereo partly drawn) [Example 70, 4-{(S)-2-[4-(4-Chloro-phenoxy)-phenoxymethyl]-1-hydroxy-pyrrolidin-1-yl}-butyric acid], the IC50 in experiment [1] (setting [3]) was less than 5 µM; in experiment [2], 5 to 20 µM.
For `c1cncc(-c2ccc(Oc3ccc(OC[C@H]4CCCN4)cc3)cc2)c1` [Example 87, 3-{4-[4-((R)-1-Pyrrolidin-2-ylmethoxy)-phenoxy]-phenyl}-pyridine hydrochloride salt], in that order: less than 5 µM and less than 5 µM.
For `O=C(O)CCCN1CCC[C@@H]1COc1ccc(Oc2ccc(-c3cnco3)cc2)cc1` [Example 88, 4-{(R)-2-[4-(4-Oxazol-5-yl-phenoxy)-phenoxymethyl]-pyrrolidin-1-yl}-butyric acid], in that order: less than 5 µM and less than 5 µM.
For `c1ccc(COc2ccc(OC[C@H]3CCCN3)cc2)cc1` [Example 90, (R)-2-(4-Benzyloxy-phenoxymethyl)-pyrrolidine hydrogen chloride salt], in that order: less than 5 µM and less than 5 µM.
For `c1ccc2sc(Oc3ccc(OC[C@H]4CCCN4)cc3)nc2c1` [Example 100, (R)-2-[4-(Benzothiazol-2-yloxy)-phenoxymethyl]-pyrrolidine-Hydrogen chloride salt], the IC50 in experiment [1] (setting [3]) and in experiment [2] was less than 5 µM in each case.
For the compound `c1ccc2sc(Cc3ccc(OC[C@H]4CCCN4)cc3)nc2c1` [Example 104, 2-[4-((R)-1-Pyrrolidin-2-ylmethoxy)-benzyl]-benzothiazole-hydrogen chloride salt], the IC50 in experiment [1] (setting [3]) and in experiment [2] was less than 5 µM in each case.
